The values below come from patent US12630529B2, “GCN2 modulator compounds” (ALESTA THERAPEUTICS BV, priority 2020, dated 2026).

pIC50: −log10 of the molar value.

Test [1] relates to CHOP (DDIT3) reporter. In words: GCN2-induction of CHOP and apoptosis in 3T3 fibroblasts with CHOP (DDIT3) reporter construct. Conditions: murine 3T3 WT and GCN2 knockout CHOP reporter cells, stress inducer alone. Type of test: cell-based, murine. Here is the method: The CHOP construct comprised the […] (UTR) of mouse DDIT3 mRNA fused to a sequence encoding the fluorescent protein mCherry.
Cells were seeded at 5,000 cells per well in flat bottom 96-well plates in 100 μL DMEM low glucose media without phenol red, and supplemented with 10% FBS and 2 mM glutamine. After 24 hours, the exemplary compounds, and either tunicamycin, halofuginone, or histidinol, were added together with 100 nM of fluorescent apoptosis stain (YO-PRO™-1 Iodide; Thermo Fisher) to detect apoptotic cells. Cells were placed in a live-cell imaging and analysis platform (IncuCyte ZOOM®; Essenbio) set up in a humidified incubator at 37° C. and the plates were scanned every 4 hours for up 120 hours, at 10× magnification, to determine cell confluence and cell death. Experiments were performed in duplicate with 3 images collected per well, and analyzed using live-cell imaging and analysis software (IncuCyte ZOOM® 2018A software; Essenbio).

Test [2] has as its target GCN2 (Homo sapiens, UniProt Q9P2K8). The experiment in a line: GCN2 enzyme inhibition assay (Reaction Biology EIF2AK4/GCN2 kinase assay). Type of test: biochemical. Further details: purchased Reaction Biology Corp. Conditions: human GCN2 enzyme activity, 10 μM ATP, 20 μM peptide substrate. The method, then:
In order to validate the above results, human GCN2 enzyme activity was measured in Reaction Biology Corp (EIF2AK4/GCN2 kinase assay). Compounds were tested in 5-dose IC50 mode for non-active compounds and 10-dose IC50 mode for active compounds with 3-fold serial dilution starting at 30 μM and 0.1 μM respectively. Control compound Staurosporine was tested in 10-dose IC50 mode with 4-fold serial dilution starting at 20 μM. Reactions were carried out at 10 μM ATP using 20 μM peptide substrate [GRSRSRSRSR]. For IC50 values: +++ refers to <10 nM of test compound; ++ refers to 10 nM to 100 nM of test compound; + refers to 100 nM to 1,000 nM of test compound and − refers to >1,000 nM of test compound.

Test [3] has as its target T1, GCN2 (Mus musculus, UniProt Q9QZ05).
T1 construct: endogenous in cells; host or cells: Neuro 2a (N2a)
The experiment in a line: GCN2 inhibition cell-based assay (P-GCN2 Western blot in Neuro 2a cells). To be noted: amino acid deprived media (DMEM lacking L-cysteine and methionine), 3 hours. Here is the method:
Neuro 2a cells (N2a) were maintained at 37° C. and 5% CO2 in DMEM/F12 medium (Fisher Scientific) supplemented with 10% fetal bovine serum and 1% penicillin-streptomycin (complete medium). 300,000 cells/well were seeded in flat bottom 6 well plates 48 hours before treatment with the compounds.
Testing compounds were prepared at different concentrations ranging from 10 μM to 0.1 nM on DMEM medium lacking L-cysteine and methionine (DMEM-CM) (Gibco) and supplemented with 1% penicillin-streptomycin. Complete medium was used as control of non-stressed condition. After 48 hours, the medium was removed from each well and 2 mL per well of each treatment was added. Cells were treated for 3 hours at 37° C. and 5% CO2.
After the incubation time, each well was washed with sterile 1×PBS and then 100 μL of ice-cold lysis buffer supplemented with phosphatase and protease inhibitors was added. Lysates were transferred to 1.5 mL tubes and sonicated for 3 min, and total protein amounts were quantified using BCA assay (e.g., BCA Protein Assay Kit; Pierce) according to manufacturer instructions. Equal amount of proteins was loaded on SDS-PAGE gels for electrophoresis and then transferred onto 0.2 µm filter pore PVDF membranes.
Membranes were then blocked in blocking buffer containing 3% BSA/0.1% Tween/1×Tris-buffered saline (TBS) for 1 hour and then incubated overnight at 4° C. with agitation with anti-pGCN2 primary antibody (Abcam ab-75836), diluted 1:1,000 in blocking buffer. […] (Sigma Aldrich) was used as a loading control.
Membranes were then incubated with the corresponding secondary antibody to detect immune-reactive bands using enhanced chemiluminescence (e.g., ECL Western Blotting Substrate Pierce).
Images were acquired (e.g., using Chemidoc™ equipment) and quantitated by densitometry using ImageJ software. IC50 values were determined from a concentration-response curve using GraphPad prism software.
IC50 values from P-GCN2 inhibition assay after induction with amino acid deprived media in the presence of different concentrations of test compounds are shown in Table 2. For IC50 values: +++ refers to <10 nM of test compound; ++ refers to 10 nM to 100 nM of test compound; + refers to 100 nM to 1,000 nM of test compound and − refers to >1,000 nM of test compound.
Under GCN2-mediated stress conditions, resulting from an amino acid deprived medium, GCN2 is generally phosphorylated. Accordingly, inhibition of GCN2 phosphorylation as a result of the test compound indicates inhibition of the GCN2 pathway.
A general note: In western blotting, separated proteins are transferred to a membrane and probed.

Sequence of GCN2 (Homo sapiens, UniProt Q9P2K8) (Q9P2K8 whole entry): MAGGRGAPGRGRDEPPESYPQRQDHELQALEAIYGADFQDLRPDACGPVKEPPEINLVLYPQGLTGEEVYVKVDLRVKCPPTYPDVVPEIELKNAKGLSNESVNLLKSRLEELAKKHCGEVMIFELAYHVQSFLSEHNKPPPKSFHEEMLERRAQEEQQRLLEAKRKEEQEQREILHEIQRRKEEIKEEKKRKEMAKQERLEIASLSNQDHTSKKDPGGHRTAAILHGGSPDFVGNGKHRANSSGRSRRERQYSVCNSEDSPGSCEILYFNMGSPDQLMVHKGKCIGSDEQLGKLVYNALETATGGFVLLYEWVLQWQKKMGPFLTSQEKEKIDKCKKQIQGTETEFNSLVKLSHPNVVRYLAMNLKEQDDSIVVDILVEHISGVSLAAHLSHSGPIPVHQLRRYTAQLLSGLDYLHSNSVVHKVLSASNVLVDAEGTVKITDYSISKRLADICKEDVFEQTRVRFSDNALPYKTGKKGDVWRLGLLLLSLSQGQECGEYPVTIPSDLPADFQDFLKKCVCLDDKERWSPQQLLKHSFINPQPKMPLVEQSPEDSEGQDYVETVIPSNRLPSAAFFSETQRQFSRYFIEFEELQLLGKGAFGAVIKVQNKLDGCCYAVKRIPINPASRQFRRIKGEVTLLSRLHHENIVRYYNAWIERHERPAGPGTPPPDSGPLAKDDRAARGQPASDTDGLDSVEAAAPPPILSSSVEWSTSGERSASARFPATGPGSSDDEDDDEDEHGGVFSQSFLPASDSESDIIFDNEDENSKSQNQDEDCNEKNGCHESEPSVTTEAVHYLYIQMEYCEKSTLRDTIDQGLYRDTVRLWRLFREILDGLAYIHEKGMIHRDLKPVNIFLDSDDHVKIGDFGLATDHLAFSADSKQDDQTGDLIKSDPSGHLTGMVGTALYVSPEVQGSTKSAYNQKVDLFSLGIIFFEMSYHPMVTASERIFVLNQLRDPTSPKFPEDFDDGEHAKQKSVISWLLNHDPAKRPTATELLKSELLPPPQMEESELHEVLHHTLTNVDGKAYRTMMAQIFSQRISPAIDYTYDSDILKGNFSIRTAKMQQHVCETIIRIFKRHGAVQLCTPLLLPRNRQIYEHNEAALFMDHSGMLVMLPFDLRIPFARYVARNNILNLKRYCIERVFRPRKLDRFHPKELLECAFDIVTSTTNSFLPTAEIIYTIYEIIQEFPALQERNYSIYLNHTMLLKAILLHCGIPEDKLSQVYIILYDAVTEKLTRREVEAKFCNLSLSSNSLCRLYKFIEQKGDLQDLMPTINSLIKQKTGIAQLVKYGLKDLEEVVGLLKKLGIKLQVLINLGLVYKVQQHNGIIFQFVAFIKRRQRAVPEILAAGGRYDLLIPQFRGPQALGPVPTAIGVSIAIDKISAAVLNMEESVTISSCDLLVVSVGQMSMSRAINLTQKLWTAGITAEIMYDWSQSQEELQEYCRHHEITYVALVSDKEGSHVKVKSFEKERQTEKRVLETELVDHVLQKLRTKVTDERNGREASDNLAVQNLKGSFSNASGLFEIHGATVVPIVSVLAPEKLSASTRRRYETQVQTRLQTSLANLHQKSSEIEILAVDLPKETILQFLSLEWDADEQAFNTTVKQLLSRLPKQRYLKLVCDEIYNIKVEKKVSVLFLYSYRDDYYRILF
T1 sequence (Q9QZ05 whole entry): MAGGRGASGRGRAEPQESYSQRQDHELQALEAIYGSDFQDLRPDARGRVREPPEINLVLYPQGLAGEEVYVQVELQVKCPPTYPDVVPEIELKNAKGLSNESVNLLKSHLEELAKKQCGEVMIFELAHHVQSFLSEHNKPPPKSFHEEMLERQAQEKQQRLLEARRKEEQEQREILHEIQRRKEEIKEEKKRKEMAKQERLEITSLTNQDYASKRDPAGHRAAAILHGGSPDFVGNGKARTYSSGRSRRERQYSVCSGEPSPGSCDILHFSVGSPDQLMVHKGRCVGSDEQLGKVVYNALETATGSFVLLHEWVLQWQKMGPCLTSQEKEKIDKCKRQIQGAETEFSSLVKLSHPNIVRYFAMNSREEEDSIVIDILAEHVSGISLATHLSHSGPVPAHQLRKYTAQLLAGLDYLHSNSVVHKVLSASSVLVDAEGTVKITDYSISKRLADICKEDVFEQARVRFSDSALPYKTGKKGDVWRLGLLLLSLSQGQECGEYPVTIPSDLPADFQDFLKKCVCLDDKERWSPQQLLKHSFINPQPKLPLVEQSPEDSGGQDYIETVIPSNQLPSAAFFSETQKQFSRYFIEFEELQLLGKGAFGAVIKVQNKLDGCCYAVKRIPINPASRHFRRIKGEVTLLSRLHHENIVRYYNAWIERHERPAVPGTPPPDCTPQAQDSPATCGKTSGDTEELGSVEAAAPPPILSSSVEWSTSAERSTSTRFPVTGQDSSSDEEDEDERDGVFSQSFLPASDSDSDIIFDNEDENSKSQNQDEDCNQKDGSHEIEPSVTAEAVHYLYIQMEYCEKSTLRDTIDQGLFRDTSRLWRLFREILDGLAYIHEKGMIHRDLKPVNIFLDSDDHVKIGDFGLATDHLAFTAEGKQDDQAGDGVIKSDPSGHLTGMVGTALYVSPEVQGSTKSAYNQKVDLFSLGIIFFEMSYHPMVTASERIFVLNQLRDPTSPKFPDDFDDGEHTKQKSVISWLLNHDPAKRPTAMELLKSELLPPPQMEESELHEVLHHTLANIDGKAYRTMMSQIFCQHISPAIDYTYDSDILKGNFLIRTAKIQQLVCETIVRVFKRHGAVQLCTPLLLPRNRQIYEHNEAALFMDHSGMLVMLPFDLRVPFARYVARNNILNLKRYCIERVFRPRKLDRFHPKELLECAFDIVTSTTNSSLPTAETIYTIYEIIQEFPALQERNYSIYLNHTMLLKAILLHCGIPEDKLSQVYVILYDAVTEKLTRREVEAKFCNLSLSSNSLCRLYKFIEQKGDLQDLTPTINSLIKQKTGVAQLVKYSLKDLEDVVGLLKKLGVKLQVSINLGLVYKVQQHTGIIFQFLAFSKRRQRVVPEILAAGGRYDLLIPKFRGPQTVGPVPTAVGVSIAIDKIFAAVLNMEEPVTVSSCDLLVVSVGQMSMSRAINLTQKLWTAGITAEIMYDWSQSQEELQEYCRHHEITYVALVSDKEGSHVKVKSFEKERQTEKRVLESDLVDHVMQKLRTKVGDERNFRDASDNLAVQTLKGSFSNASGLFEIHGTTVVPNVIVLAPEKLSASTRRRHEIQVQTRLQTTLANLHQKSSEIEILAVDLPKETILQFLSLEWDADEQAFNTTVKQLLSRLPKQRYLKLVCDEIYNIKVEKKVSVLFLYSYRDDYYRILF

For `N[C@H](CO)Cc1c[nH]cn1` [histidinol, L-histidinol, reference compound], the “induction of CHOP (mCherry)” value in test [1] is on record as “induction of CHOP (mCherry) could be observed in the WT cells, but not in the GCN2 knockout cells”. By pIC50 is commonly meant the IC50 on a negative log10 scale, so that one unit is a factor of ten. The low end stands for a high IC50, the high end for a low IC50. Regarding `COc1ncc(Cl)cc1C(=O)Nc1ccc(F)c(C#Cc2cnc(N)nc2)c1F` [Compound 3], the pIC50 in test [2] and in test [3] was less than 6.00 throughout. In test [3], `Nc1ncc2cc(-c3c(F)ccc(NS(=O)(=O)c4ccc5occc5c4)c3F)ccc2n1` [Compound 122] had a pIC50 of 6.00 to 7.00.

Molecule `COc1ncc(Cl)cc1S(=O)(=O)Nc1ccc(F)c(-c2ccc3nc(N[C@H]4CC[C@@H](O)CC4)ncc3c2)c1F` [Compound 129] showed a pIC50 in test [3] of more than 8.00.

In test [3], `Nc1ncc2cc(-c3c(F)ccc(NS(=O)(=O)c4cc(F)cc(F)c4)c3F)ccc2n1` [Compound 112] showed a negative-log IC50 (pIC50) of less than 6.00.

`O=S(=O)(Nc1ccc(F)c(-c2ccc3nc(N[C@H](CO)c4ccccc4)ncc3c2)c1F)c1cc(Cl)ccc1C(F)(F)F` [Compound 166] had a negative-log IC50 (pIC50) in test [3] of 6.00 to 7.00. Still for that read-out and setting: next, `O=S(=O)(Nc1ccc(F)c(-c2ccc3nc(N[C@H]4CC[C@H](O)CC4)ncc3c2)c1F)c1cc(Cl)cc(CO)c1Cl` [Compound 69]: more than 8.00. With `Nc1ncc2ccc(-c3c(F)ccc(NS(=O)(=O)c4cc(Cl)ccc4Cl)c3F)cc2n1` [Compound 5], the pIC50 in test [2] and in test [3] was less than 6.00 each time. As for `Nc1ncc2cc(-c3c(F)ccc(NS(=O)(=O)c4cc(C(F)(F)F)ccc4C(F)(F)F)c3F)ccc2n1` [Compound 121], the pIC50 in test [3] was more than 8.00. Regarding `COc1ncc(Cl)cc1-c1nnc(-c2ccc(F)c(C#Cc3cnc(N)nc3)c2F)o1` [Compound 7], the negative-log IC50 (pIC50) in test [2] and in test [3] was less than 6.00 throughout.

As for tunicamycin [reference compound], in test [1], the “induction of CHOP (mCherry)” value was “significant induction of CHOP in both the WT and GCN2 knockout cell lines”. Regarding `Nc1ncc2cc(-c3c(F)ccc(NS(=O)(=O)c4ccsc4)c3F)ccc2n1` [Compound 140], in test [3], the negative logarithm of the IC50 (pIC50) is less than 6.00.

The molecule `COc1ncc(Cl)cc1S(=O)(=O)Nc1ccc(F)c(-c2ccc3nc(N)ncc3c2)c1` [Compound 19] showed a pIC50 in test [3] of 6.00 to 7.00. The same measure, in the same setting: next, `COc1ccc(S(=O)(=O)Nc2ccc(F)c(-c3ccc4nc(N)ncc4c3)c2F)cc1Cl` [Compound 148]: 6.00 to 7.00. Consider `COc1ncc(Cl)cc1S(=O)(=O)Nc1ccc(F)c(-c2ccc(-c3cnc(N)nc3)nc2)c1F` [Compound 4], for which the pIC50 was 6.00 to 7.00 in test [2] and less than 6.00 in test [3]. `Nc1ncc2cc(-c3c(F)ccc(NS(=O)(=O)c4cc(F)ccc4F)c3F)ccc2n1` [Compound 8]: the negative-log IC50 (pIC50) in test [3] was less than 6.00. The same measure, in the same setting: the result for `COc1ccc(F)cc1S(=O)(=O)Nc1ccc(F)c(-c2ccc3nc(N)ncc3c2)c1F` [Compound 110] reads less than 6.00; that for `COc1ncc(Cl)cc1S(=O)(=O)Nc1ccc(F)c(-c2ccc3nc(NC(=O)C(C)(C)C)ncc3c2)c1F` [Compound 105], 7.00 to 8.00; that for `Nc1ncc2cc(-c3ccc(F)c(NS(=O)(=O)c4cc(Cl)ccc4Cl)c3F)ccc2n1` [Compound 12], less than 6.00. The same measure, in the same setting: next, `Nc1ncc2cc(-c3c(F)ccc(NS(=O)(=O)c4cc(Cl)cc(C(F)(F)F)c4)c3F)ccc2n1` [Compound 63]: 7.00 to 8.00; `COc1cc(S(=O)(=O)Nc2ccc(F)c(-c3ccc4nc(N)ncc4c3)c2F)ccc1F` [Compound 143]: 6.00 to 7.00.

Molecule `COc1ncc(Cl)cc1S(=O)(=O)Nc1ccc(F)c(-c2ccc3nc(NCCO)ncc3c2)c1F` [Compound 46] gave a pIC50 in test [3] of more than 8.00.

In test [3], `COc1ncc(Cl)cc1S(=O)(=O)Nc1ccc(F)c(-c2ccc3nc(N(C)C)ncc3c2)c1F` [Compound 155] had a negative-log IC50 (pIC50) of 6.00 to 7.00.

In test [3], `Nc1ncc2cc(-c3c(F)ccc(NS(=O)(=O)c4ccc(F)c(F)c4)c3F)ccc2n1` [Compound 132] gave a negative-log IC50 (pIC50) of less than 6.00. The same measure, in the same setting: the result for `COc1ncc(Cl)cc1S(=O)(=O)Nc1ccc(F)c(-c2ccc3nc(N[C@H]4CC[C@H](O)CC4)ncc3c2)c1F` [Compound 65] reads more than 8.00; that for `Cc1ccc(F)cc1S(=O)(=O)Nc1ccc(F)c(-c2ccc3nc(N)ncc3c2)c1F` [Compound 133], 7.00 to 8.00. Still for that read-out and setting: the result for `Nc1ncc2cc(-c3c(F)ccc(NS(=O)(=O)c4ccc(F)c(Cl)c4)c3F)ccc2n1` [Compound 158] reads 6.00 to 7.00; that for `Nc1ncc2cc(-c3c(F)ccc(NS(=O)(=O)c4cc(Cl)c(Cl)cc4Cl)c3F)ccc2n1` [Compound 150], 7.00 to 8.00. The same measure, in the same setting: next, `Cc1c(NS(=O)(=O)c2cc(Cl)ccc2Cl)cccc1-c1ccc2nc(N)ncc2c1` [Compound 11]: 7.00 to 8.00. `O=S(=O)(Nc1ccc(F)c(-c2ccc3nc(NC4CCOC4)ncc3c2)c1F)c1cc(Cl)ccc1Cl` (stereo not drawn) [Compound 168]: the negative logarithm of the IC50 (pIC50) in test [3] was more than 8.00. On the same count and under the same terms, next, `Nc1ncc2cc(-c3c(F)ccc(NS(=O)(=O)c4cccc(OC(F)(F)F)c4)c3F)ccc2n1` [Compound 139]: 6.00 to 7.00; `O=S(=O)(Nc1ccc(F)c(-c2ccc3nc(NCCO)ncc3c2)c1F)c1cc(Cl)cc(CO)c1Cl` [Compound 134]: more than 8.00. The same measure, in the same setting: next, `Nc1ncc2cc(-c3c(F)ccc(NS(=O)(=O)c4cccnc4)c3F)ccc2n1` [Compound 130]: less than 6.00.

As for `O=C(CC1NCCCC1O)Cn1cnc2cc(Br)c(Cl)cc2c1=O` (stereo not drawn) [halofuginone, reference compound], the “induction of CHOP (mCherry)” value in test [1] is “induction of CHOP (mCherry) could be observed in the WT cells, but not in the GCN2 knockout cells”. `COc1ncc(Cl)cc1S(=O)(=O)Nc1ccc(F)c(-c2ccc3cnc(N)nc3c2)c1F` [Compound 6]: the pIC50 in test [2] and in test [3] was less than 6.00 in each case. `Nc1ncc2cc(-c3cc(F)cc(NS(=O)(=O)c4cc(Cl)ccc4Cl)c3)ccc2n1` [Compound 14] showed a pIC50 in test [3] of less than 6.00. The molecule `COc1ccc(S(=O)(=O)Nc2ccc(F)c(-c3ccc4nc(N)ncc4c3)c2F)cc1OC` [Compound 115] showed a pIC50 in test [3] of 7.00 to 8.00.
